Laboratory results taken from ChEMBL document CHEMBL4387783, “Bioactive triterpene glycosides from the fruit of Stauntonia hexaphylla and insights into the molecular mechanism of its inflammatory effects” (Bioorg Med Chem Lett, 2019).
The source made the active and inactive calls. The calls are words filed in the database; no cut-off is given here.

Columns and labels:
RAW264.7 [1] = assay: Antiinflammatory activity in mouse RAW264.7 cells assessed as inhibition of LPS-induced nitirc oxide production preincubated for 1 hr followed by LPS-stimulation and measured after 18 hrs by Griess assay; type: functional, cell-based
[2] = Cytotoxicity against LPS-stimulated mouse RAW264.7 cells assessed as cell viability at antiinflammatory IC50 preincubated for 1 hr followed by LPS-stimulation and measured after 18 hrs by MTT assay relative to control; type: cell-based; conditions: LPS-stimulated RAW264.7 cells, read-out: Activity
RAW264.7 [3] = assay: Antiinflammatory activity in mouse RAW264.7 cells assessed as inhibition of LPS-induced COX2 expression at 1 to 5 uM preincubated for 1 hr followed by LPS-stimulation and measured after 16 hrs by Western blot analysis; type: functional, cell-based
RAW264.7 [4] = assay: Antiinflammatory activity in mouse RAW264.7 cells assessed as inhibition of LPS-induced iNOS expression at 1 to 5 uM preincubated for 1 hr followed by LPS-stimulation and measured after 16 hrs by Western blot analysis; type: functional, cell-based

SMILES | IC50 (RAW264.7 [1]) | other results
CC1(C)CC[C@]2(C(=O)O)CC[C@]3(C)C(=CC[C@@H]4[C@@]5(C)CC[C@@H](O)[C@@](C)(CO)[C@@H]5CC[C@]43C)[C@@H]2C1 | > 50 µM | –
CC1(C)CC[C@]2(C(=O)O)CC[C@]3(C)C(=CC[C@@H]4[C@@]5(C)CC[C@H](O[C@@H]6O[C@H](CO)[C@@H](O)[C@H](O)[C@H]6O[C@@H]6OC[C@H](O)[C@H](O)[C@H]6O)C(C)(C)[C@@H]5CC[C@]43C)[C@@H]2C1 | 3.1 to 3.13 µM | –
COC(=O)C(CC(=O)O)OC(=O)/C=C/c1ccc(O)c(O)c1 (stereo not drawn) | > 50 µM | –
COc1cc(O)cc(OC)c1O[C@@H]1O[C@H](CO)[C@@H](O)[C@H](O)[C@H]1O [LEONURISIDE] | > 50 µM | –
C[C@@H]1C[C@H]2[C@@H]3CCC4=CC(=O)C=C[C@]4(C)[C@@]3(F)[C@@H](O)C[C@]2(C)[C@@]1(O)C(=O)CO [DEXAMETHASONE] | 0.01 µM | –
C[C@@H]1O[C@@H](O[C@H]2[C@H](O[C@H]3CC[C@]4(C)[C@H]5CC=C6[C@@H]7CC(C)(C)CC[C@]7(C(=O)O)CC[C@@]6(C)[C@]5(C)CC[C@H]4C3(C)C)O[C@H](CO)[C@@H](O)[C@@H]2O)[C@H](O)[C@H](O)[C@H]1O | 1.5 µM | viability at 18 h [2]: < 60%
C[C@@H]1O[C@@H](O[C@H]2[C@H](O)[C@@H](O)[C@H](OC[C@H]3O[C@@H](OC(=O)[C@]45CCC(C)(C)C[C@H]4C4=CC[C@@H]6[C@@]7(C)CC[C@H](O[C@@H]8OC[C@H](O)[C@H](O)[C@H]8O)[C@@](C)(CO)[C@@H]7CC[C@@]6(C)[C@]4(C)CC5)[C@H](O)[C@@H](O)[C@@H]3O)O[C@@H]2CO)[C@H](O)[C@H](O)[C@H]1O [CAULOSIDE D] | 3.68 to 3.7 µM | viability at 18 h [2]: < 60%
CC1(C)CC[C@]2(C(=O)O[C@@H]3O[C@H](CO[C@@H]4O[C@H](CO)[C@@H](O)[C@H](O)[C@H]4O)[C@@H](O)[C@H](O)[C@H]3O)CC[C@]3(C)C(=CC[C@@H]4[C@@]5(C)CC[C@H](O[C@@H]6O[C@H](CO)[C@@H](O)[C@H](O)[C@H]6O)C(C)(C)[C@@H]5CC[C@]43C)[C@@H]2C1 | > 50 µM | –
CC1(C)CC[C@]2(C(=O)O)CC[C@]3(C)C(=CC[C@@H]4[C@@]5(C)CC[C@H](O[C@@H]6O[C@H](CO)[C@@H](O)[C@H](O)[C@H]6O)[C@@](C)(CO)[C@@H]5CC[C@]43C)[C@@H]2C1 [Hederagenin-3-O-beta-D-glucopyranoside] | 13.4 µM | –
CC1(C)[C@H](O)CC[C@]2(C)[C@H]3CC=C4[C@@H]5C[C@](C)(CO)CC[C@]5(C(=O)O)CC[C@@]4(C)[C@]3(C)CC[C@@H]12 | > 50 µM | –
C[C@@H]1O[C@@H](O[C@H]2[C@H](O[C@H]3CC[C@]4(C)[C@H]5CC=C6[C@@H]7CC(C)(C)CC[C@]7(C(=O)O)CC[C@@]6(C)[C@]5(C)CC[C@H]4C3(C)C)OC[C@H](O[C@@H]3O[C@H](CO)[C@@H](O)[C@H](O)[C@H]3O)[C@@H]2O)[C@H](O)[C@H](O)[C@H]1O[C@@H]1O[C@H](CO)[C@@H](O)[C@H](O)[C@H]1O | > 50 µM | –
C[C@@H]1O[C@@H](O[C@H]2[C@H](O)[C@@H](O)[C@H](OC[C@H]3O[C@@H](OC(=O)[C@]45CCC(C)(C)C[C@H]4C4=CC[C@@H]6[C@@]7(C)CC[C@H](O[C@@H]8OC[C@H](O)[C@H](O)[C@H]8O[C@@H]8O[C@H](CO)[C@@H](O)[C@H](O)[C@H]8O)C(C)(C)[C@@H]7CC[C@@]6(C)[C@]4(C)CC5)[C@H](O)[C@@H](O)[C@@H]3O)O[C@@H]2CO)[C@H](O)[C@H](O)[C@H]1O | > 50 µM | –
CC1(C)CC[C@]2(C(=O)O[C@@H]3O[C@H](CO[C@@H]4O[C@H](CO)[C@@H](O)[C@H](O)[C@H]4O)[C@@H](O)[C@H](O)[C@H]3O)CC[C@]3(C)C(=CC[C@@H]4[C@@]5(C)CC[C@H](O[C@@H]6OC[C@H](O)[C@H](O)[C@H]6O[C@@H]6O[C@H](CO)[C@@H](O)[C@H](O)[C@H]6O)C(C)(C)[C@@H]5CC[C@]43C)[C@@H]2C1 | > 50 µM | –
COc1cc(CCC(=O)O)ccc1O [DIHYDROFERULIC ACID] | > 50 µM | –
C[C@@H]1O[C@@H](O[C@H]2[C@H](O)[C@@H](O)[C@H](OC[C@H]3O[C@@H](OC(=O)[C@]45CCC(C)(C)C[C@H]4C4=CC[C@@H]6[C@@]7(C)CC[C@H](O[C@@H]8OC[C@H](O)[C@H](O[C@@H]9OC[C@H](O)[C@H](O)[C@H]9O)[C@H]8O)C(C)(C)[C@@H]7CC[C@@]6(C)[C@]4(C)CC5)[C@H](O)[C@@H](O)[C@@H]3O)O[C@@H]2CO)[C@H](O)[C@H](O)[C@H]1O | > 50 µM | –
C[C@@H]1O[C@@H](O[C@H]2[C@H](O[C@H]3CC[C@@]4(C)[C@@H](CC[C@]5(C)[C@@H]4CC=C4[C@@H]6CC(C)(C)CC[C@]6(C(=O)O[C@@H]6O[C@H](CO[C@@H]7O[C@H](CO)[C@@H](O[C@@H]8O[C@@H](C)[C@H](O)[C@@H](O)[C@H]8O)[C@H](O)[C@H]7O)[C@@H](O)[C@H](O)[C@H]6O)CC[C@]45C)[C@]3(C)CO)OC[C@H](O)[C@@H]2O)[C@H](O)[C@H](O)[C@H]1O [KALOPANAXSAPONIN B] | > 50 µM | –
CC1(C)CC[C@]2(C(=O)O)CC[C@]3(C)C(=CC[C@@H]4[C@@]5(C)C[C@@H](O)[C@H](O)[C@@](C)(CO)[C@@H]5CC[C@]43C)[C@@H]2C1 [ARJUNOLIC ACID] | 15.2 µM | –
CC1(C)CC[C@]2(C(=O)O)CC[C@]3(C)C(=CC[C@@H]4[C@@]5(C)CC[C@H](O[C@@H]6OC[C@H](O)[C@H](O)[C@H]6O)[C@@](C)(CO)[C@@H]5CC[C@]43C)[C@@H]2C1 | 2.25 to 2.3 µM | –
C[C@@H]1O[C@@H](O[C@H]2[C@H](O[C@H]3CC[C@]4(C)[C@H]5CC=C6[C@@H]7CC(C)(C)CC[C@]7(C(=O)O[C@@H]7O[C@H](CO[C@@H]8O[C@H](CO)[C@@H](O[C@@H]9O[C@@H](C)[C@H](O)[C@@H](O)[C@H]9O)[C@H](O)[C@H]8O)[C@@H](O)[C@H](O)[C@H]7O)CC[C@@]6(C)[C@]5(C)CC[C@H]4C3(C)C)OC[C@H](O)[C@@H]2O)[C@H](O)[C@H](O)[C@H]1O [HEDERASAPONIN B] | > 50 µM | –
CC1(C)CC[C@]2(C(=O)O)CC[C@]3(C)C(=CC[C@@H]4[C@@]5(C)CC[C@H](O[C@@H]6OC[C@H](O)[C@H](O)[C@H]6O)C(C)(C)[C@@H]5CC[C@]43C)[C@@H]2C1 | 4 to 4.04 µM | –
CC1(C)CC[C@]2(C(=O)O[C@@H]3O[C@H](CO[C@@H]4O[C@H](CO)[C@@H](O)[C@H](O)[C@H]4O)[C@@H](O)[C@H](O)[C@H]3O)CC[C@]3(C)C(=CC[C@@H]4[C@@]5(C)CC[C@H](O[C@@H]6OC[C@H](O)[C@H](O)[C@H]6O)[C@@](C)(CO)[C@@H]5CC[C@]43C)[C@@H]2C1 | > 50 µM | –
C[C@@H]1O[C@@H](O[C@H]2[C@H](O[C@H]3CC[C@@]4(C)[C@@H](CC[C@]5(C)[C@@H]4CC=C4[C@@H]6CC(C)(C)CC[C@]6(C(=O)O)CC[C@]45C)[C@]3(C)CO)OC[C@H](O)[C@@H]2O)[C@H](O)[C@H](O)[C@H]1O [ALPHA-HEDERIN] | 1.1 µM | inhibition (RAW264.7 [3]): Active; inhibition (RAW264.7 [4]): Active
C[C@@H]1O[C@@H](O[C@H]2[C@H](O[C@H]3CC[C@]4(C)[C@H]5CC=C6[C@@H]7CC(C)(C)CC[C@]7(C(=O)O)CC[C@@]6(C)[C@]5(C)CC[C@H]4C3(C)C)OC[C@H](O)[C@@H]2O)[C@H](O)[C@H](O)[C@H]1O | 1.3 to 1.33 µM | inhibition (RAW264.7 [3]): Active; inhibition (RAW264.7 [4]): Active
CC1=CC(=O)CC(C)(C)[C@@]1(O)/C=C/[C@H](C)O | > 50 µM | –
C[C@@H]1O[C@@H](O[C@H]2[C@H](O)[C@@H](O)[C@H](OC[C@H]3O[C@@H](OC(=O)[C@]45CCC(C)(C)C[C@H]4C4=CC[C@@H]6[C@@]7(C)CC[C@H](O)[C@@](C)(CO)[C@@H]7CC[C@@]6(C)[C@]4(C)CC5)[C@H](O)[C@@H](O)[C@@H]3O)O[C@@H]2CO)[C@H](O)[C@H](O)[C@H]1O [KIZUTA CIRENSENOSIDE O SAPONIN K3] | > 50 µM | –
C[C@@H]1O[C@@H](O[C@H]2[C@H](O[C@H]3CC[C@]4(C)[C@H]5CC=C6[C@@H]7CC(C)(C)CC[C@]7(C(=O)O[C@@H]7O[C@H](CO)[C@@H](O)[C@H](O)[C@H]7O)CC[C@@]6(C)[C@]5(C)CC[C@H]4C3(C)C)OC[C@H](O)[C@@H]2O)[C@H](O)[C@H](O)[C@H]1O | > 50 µM | –
C[C@@H]1O[C@@H](O[C@H]2[C@H](O[C@H]3CC[C@@]4(C)[C@@H](CC[C@]5(C)[C@@H]4CC=C4[C@@H]6CC(C)(C)CC[C@]6(C(=O)O)CC[C@]45C)[C@]3(C)CO)O[C@H](CO)[C@@H](O)[C@@H]2O)[C@H](O)[C@H](O)[C@H]1O | 4.2 to 4.21 µM | –
